Test results from patent US8501750B2, “Heterocyclic compound and use thereof” (Takeda Pharmaceutical Company Limited, priority 2007, dated 2013).
Where a name gives a salt, the structure may show the parent alone. Read-outs that look alike come from different tables or passages of the source.

Key:
[1] = molecular target: PPARγ (Homo sapiens (Human), UniProt P37231); experiment: PPARγ activating action (luciferase reporter in PPARγ:RXRα:4ERPP/CHO-K1 cells); format: cell-based; settings: CHO-K1, 24 h, read-out: PPARγ activating action (activation % (1 μM))
PPARγ, sequence (P37231 29-505): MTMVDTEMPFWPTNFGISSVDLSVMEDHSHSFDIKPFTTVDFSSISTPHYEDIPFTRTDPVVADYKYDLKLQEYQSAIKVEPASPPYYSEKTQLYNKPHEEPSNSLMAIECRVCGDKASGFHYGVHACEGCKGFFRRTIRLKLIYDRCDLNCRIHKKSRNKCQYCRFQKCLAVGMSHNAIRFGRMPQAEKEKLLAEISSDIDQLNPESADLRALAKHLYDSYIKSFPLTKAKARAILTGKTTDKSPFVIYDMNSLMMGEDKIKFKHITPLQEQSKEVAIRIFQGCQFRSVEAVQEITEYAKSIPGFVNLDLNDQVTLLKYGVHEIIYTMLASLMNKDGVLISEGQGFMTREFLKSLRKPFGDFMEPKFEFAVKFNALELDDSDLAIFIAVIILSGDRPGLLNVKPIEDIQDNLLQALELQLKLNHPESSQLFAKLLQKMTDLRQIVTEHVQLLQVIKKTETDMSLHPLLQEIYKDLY
PPARγ, sequence (P19793 whole entry partner): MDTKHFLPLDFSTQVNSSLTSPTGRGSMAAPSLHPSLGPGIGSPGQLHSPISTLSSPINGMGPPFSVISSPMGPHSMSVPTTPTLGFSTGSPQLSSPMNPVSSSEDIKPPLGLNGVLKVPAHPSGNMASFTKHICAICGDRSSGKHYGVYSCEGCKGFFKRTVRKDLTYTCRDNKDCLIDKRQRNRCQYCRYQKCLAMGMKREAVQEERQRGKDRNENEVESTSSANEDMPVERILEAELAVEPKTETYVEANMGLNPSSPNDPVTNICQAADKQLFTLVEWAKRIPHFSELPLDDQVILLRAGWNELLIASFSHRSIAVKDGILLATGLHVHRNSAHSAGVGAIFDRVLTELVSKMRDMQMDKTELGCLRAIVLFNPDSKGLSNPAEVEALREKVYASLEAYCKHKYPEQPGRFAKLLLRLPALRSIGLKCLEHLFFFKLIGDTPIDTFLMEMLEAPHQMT
Method: Then the medium was removed from the 96-well half area white plate, 45 μl of Ham's F12 medium containing 0.1% fatty acid-free bovine serum albumin (BSA) and 5 μl of test compound were added, and the cells were cultured in a CO2 gas incubator at 37° C. for 1 day. The medium was removed and 20 μl of PicaGene 7.5 [manufactured by Dainippon Ink and Chemicals Corporation, Japan] diluted 2-fold with HBSS (HANKS' BALANCED SALT SOLUTION) [manufactured by BIO WHITTAKER, USA] was added. After stirring, the luciferase activity was determined using 1420 ARVO Multilabel Counter [manufactured by PerkinElmer, USA]. […] A CHO-K1 cell cultured in a 150 cm^2 cell culture flask [manufactured by Corning Costar Corporation, USA] containing Ham's F12 medium [manufactured by INVITROGEN, USA] supplemented with 10% fetal bovine serum [manufactured by INVITROGEN, USA] was scraped by treating with 0.5 g/L trypsin-0.2 g/L EDTA (ethylenediaminetetraacetic acid) [manufactured by Life Technologies, Inc., USA], and then the cell was washed with PBS (Phosphate-buffered saline) [manufactured by INVITROGEN, USA], centrifuged (1000 rpm, 5 minutes) and suspended in PBS. Subsequently, DNA was introduced into the cell under the conditions shown below using GENE PULSER [manufactured by Bio-Rad Laboratories, USA]. […] Subsequently, the cell was transferred into a F12 medium containing 10% fetal bovine serum and cultured for 24 hours, and then the cell was scraped again and centrifuged, and then suspended in Ham's F12 medium containing 10% fetal bovine serum supplemented with 500 μg/ml of Geneticin [manufactured by INVITROGEN, USA] and 250 μg/ml of Zeocin [manufactured by INVITROGEN, USA]. The obtained suspension was diluted to the density of 10^4 cells/ml and inoculated in a 96-well plate [manufactured by Corning Costar Corporation, USA], which was cultured in a CO2 gas incubator at 37° C., whereby obtaining a Geneticin- and Zeocin-resistant transformant.

[2] = molecular target: AT1 receptor (Homo sapiens (Human), UniProt P30556); experiment: AT1 receptor binding inhibitory action
AT1 receptor, sequence (P30556 whole entry): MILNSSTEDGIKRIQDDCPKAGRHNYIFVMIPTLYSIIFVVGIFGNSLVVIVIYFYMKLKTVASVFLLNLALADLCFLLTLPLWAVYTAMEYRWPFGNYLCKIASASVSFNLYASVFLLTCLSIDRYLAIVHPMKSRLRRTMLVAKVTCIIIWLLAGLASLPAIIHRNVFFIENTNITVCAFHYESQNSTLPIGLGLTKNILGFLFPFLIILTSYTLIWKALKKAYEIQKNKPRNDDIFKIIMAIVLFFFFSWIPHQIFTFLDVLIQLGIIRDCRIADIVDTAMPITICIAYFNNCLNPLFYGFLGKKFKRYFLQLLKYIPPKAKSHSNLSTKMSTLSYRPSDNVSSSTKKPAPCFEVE

[3] = test compound 1 μM, luciferase activity relative to control compound X (1 μM) = 100%, non-administration group = 0%

SMILES: O=c1[nH]c(-c2ccccc2-c2ccc(Cn3c(=O)n(CCc4ccc(Cl)cc4)c(=O)c4cc(CC(F)(F)F)sc43)cc2)no1 [Ex. 58, 3-[2-(4-chlorophenyl)ethyl]-1-{[2′-(5-oxo-4,5-dihydro-1,2,4-oxadiazol-3-yl)biphenyl-4-yl]methyl}-6-(2,2,2-trifluoroethyl)thieno[2,3-d]pyrimidine-2,4(1H,3H)-dione]
- activation at 1 µM [1, 3]: 27%
- IC50 [2]: 1.6 nM

SMILES: CCc1cc2c(=O)n(CC(C)(C)C)c(=O)n(Cc3ccc(-c4ccccc4-c4noc(=O)[nH]4)cc3)c2s1 [Ex. 154, 3-(2,2-dimethylpropyl)-6-ethyl-1-{[2′-(5-oxo-4,5-dihydro-1,2,4-oxadiazol-3-yl)biphenyl-4-yl]methyl}thieno[2,3-d]pyrimidine-2,4(1H,3H)-dione]
- activation at 1 µM [1, 3]: 51%
- IC50 [2]: 1.9 nM

SMILES: CCc1cc2c(=O)n(CC(=NOC(C)C)c3ccc(OC)cc3)c(=O)n(Cc3ccc(-c4ccccc4-c4noc(=O)[nH]4)cc3)c2s1 [Ex. 213, 6-ethyl-3-[2-(isopropoxyimino)-2-(4-methoxyphenyl)ethyl]-1-{[2′-(5-oxo-4,5-dihydro-1,2,4-oxadiazol-3-yl)biphenyl-4-yl]methyl}thieno[2,3-d]pyrimidine-2,4(1H,3H)-dione]
- activation at 1 µM [1, 3]: 49%
- IC50 [2]: 2 nM

SMILES: O=c1[nH]c(-c2ccccc2-c2ccc(Cn3c(=O)n(CCc4cccc(F)c4)c(=O)c4cc(CC(F)(F)F)sc43)cc2)no1 [Ex. 60, 3-[2-(3-fluorophenyl)ethyl]-1-{[2′-(5-oxo-4,5-dihydro-1,2,4-oxadiazol-3-yl)biphenyl-4-yl]methyl}-6-(2,2,2-trifluoroethyl)thieno[2,3-d]pyrimidine-2,4(1H,3H)-dione]
- activation at 1 µM [1, 3]: 42%
- IC50 [2]: 1 nM

SMILES: CC(C)(C)C(O)Cn1c(=O)c2cc(C3CC3)sc2n(Cc2ccc(-c3ccccc3-c3noc(=O)[nH]3)cc2)c1=O (centres unmarked) [Ex. 143, 6-cyclopropyl-3-(2-hydroxy-3,3-dimethylbutyl)-1-{[2′-(5-oxo-4,5-dihydro-1,2,4-oxadiazol-3-yl)biphenyl-4-yl]methyl}thieno[2,3-d]pyrimidine-2,4(1H,3H)-dione]
- activation at 1 µM [1, 3]: 45%
- IC50 [2]: 1.4 nM

SMILES: CCc1cc2c(=O)n(CC(O)C(C)(C)C)c(=O)n(Cc3ccc(-c4ccccc4-c4noc(=O)[nH]4)cc3)c2s1 (centres unmarked) [Ex. 149, 6-ethyl-3-(2-hydroxy-3,3-dimethylbutyl)-1-{[2′-(5-oxo-4,5-dihydro-1,2,4-oxadiazol-3-yl)biphenyl-4-yl]methyl}thieno[2,3-d]pyrimidine-2,4(1H,3H)-dione]
- activation at 1 µM [1, 3]: 50%
- IC50 [2]: 1.8 nM

SMILES: O=C(Cn1c(=O)c2cc(CC(F)(F)F)sc2n(Cc2ccc(-c3ccccc3-c3noc(=O)[nH]3)cc2)c1=O)C1CCCCC1 [Ex. 136, 3-(2-cyclohexyl-2-oxoethyl)-1-{[2′-(5-oxo-4,5-dihydro-1,2,4-oxadiazol-3-yl)biphenyl-4-yl]methyl}-6-(2,2,2-trifluoroethyl)thieno[2,3-d]pyrimidine-2,4(1H,3H)-dione]
- activation at 1 µM [1, 3]: 36%
- IC50 [2]: 1.5 nM

SMILES: CCc1cc2c(=O)n(CC(OC(C)=O)c3ccc(OC)cc3)c(=O)n(Cc3ccc(-c4ccccc4-c4noc(=O)[nH]4)cc3F)c2s1 (centres unmarked) [Ex. 153, 2-[6-ethyl-1-{[3-fluoro-2′-(5-oxo-4,5-dihydro-1,2,4-oxadiazol-3-yl)biphenyl-4-yl]methyl}-2,4-dioxo-1,4-dihydrothieno[2,3-d]pyrimidin-3(2H)-yl]-1-(4-methoxyphenyl)ethyl acetate]
- activation at 1 µM [1, 3]: 39%
- IC50 [2]: 1.3 nM

SMILES: CCc1cc2c(=O)n(CCN3CCOCC3)c(=O)n(Cc3ccc(-c4ccccc4-c4noc(=O)[nH]4)cc3F)c2s1 [Ex. 117, 6-ethyl-1-{[3-fluoro-2′-(5-oxo-4,5-dihydro-1,2,4-oxadiazol-3-yl)biphenyl-4-yl]methyl}-3-(2-morpholin-4-ylethyl)thieno[2,3-d]pyrimidine-2,4(1H,3H)-dione]
- activation at 1 µM [1, 3]: 62%
- IC50 [2]: 1.8 nM

SMILES: COc1ccccc1C(=O)Cn1c(=O)c2cc(CC(F)(F)F)sc2n(Cc2c(F)cc(-c3ccccc3-c3noc(O)n3)cc2F)c1=O [Ex. 127, 1-{[3,5-difluoro-2′-(5-oxo-4,5-dihydro-1,2,4-oxadiazol-3-yl)biphenyl-4-yl]methyl}-3-[2-(2-methoxyphenyl)-2-oxoethyl]-6-(2,2,2-trifluoroethyl)thieno[2,3-d]pyrimidine-2,4(1H,3H)-dione potassium salt]
- activation at 1 µM [1]: 53%
- IC50 [2]: 1.4 nM

SMILES: COc1ccc(C(=O)Cn2c(=O)c3cc(C4CC4)sc3n(Cc3c(F)cc(-c4ccccc4-c4noc(O)n4)cc3F)c2=O)cc1 [Ex. 135, 6-cyclopropyl-1-{[3,5-difluoro-2′-(5-oxo-4,5-dihydro-1,2,4-oxadiazol-3-yl)biphenyl-4-yl]methyl}-3-[2-(4-methoxyphenyl)-2-oxoethyl]thieno[2,3-d]pyrimidine-2,4(1H,3H)-dione potassium salt]
- activation at 1 µM [1]: 71%
- IC50 [2]: 1.5 nM

SMILES: CCCc1cc2c(=O)n(CC(=O)c3ccc(OC)cc3)c(=O)n(Cc3ccc(-c4ccccc4-c4noc(=O)[nH]4)cc3F)c2s1 [Ex. 158, 1-{[3-fluoro-2′-(5-oxo-4,5-dihydro-1,2,4-oxadiazol-3-yl)biphenyl-4-yl]methyl}-3-[2-(4-methoxyphenyl)-2-oxoethyl]-6-propylthieno[2,3-d]pyrimidine-2,4(1H,3H)-dione]
- activation at 1 µM [1, 3]: 30%
- IC50 [2]: 1.7 nM

SMILES: CCc1cc2c(=O)n(CC(=O)c3ccc(OC)c(F)c3)c(=O)n(Cc3ccc(-c4ccccc4-c4noc(=O)[nH]4)cc3F)c2s1 [Ex. 157, 6-ethyl-3-[2-(3-fluoro-4-methoxyphenyl)-2-oxoethyl]-1-{[3-fluoro-2′-(5-oxo-4,5-dihydro-1,2,4-oxadiazol-3-yl)biphenyl-4-yl]methyl}thieno[2,3-d]pyrimidine-2,4(1H,3H)-dione]
- activation at 1 µM [1, 3]: 35%
- IC50 [2]: 1.4 nM

SMILES: CCc1cc2c(=O)n(-c3ccc(OC(C)C)cc3)c(=O)n(Cc3ccc(-c4ccccc4-c4noc(=O)[nH]4)cc3F)c2s1 [Ex. 180, 6-ethyl-1-{[3-fluoro-2′-(5-oxo-4,5-dihydro-1,2,4-oxadiazol-3-yl)biphenyl-4-yl]methyl}-3-(4-isopropoxyphenyl)thieno[2,3-d]pyrimidine-2,4(1H,3H)-dione]
- activation at 1 µM [1, 3]: 50%
- IC50 [2]: 1.6 nM

SMILES: CCc1cc2c(=O)n(-c3ccc4c(c3)CC(C)(C)O4)c(=O)n(Cc3ccc(-c4ccccc4-c4noc(=O)[nH]4)cc3F)c2s1 [Ex. 181, 3-(2,2-dimethyl-2,3-dihydro-1-benzofuran-5-yl)-6-ethyl-1-{[3-fluoro-2′-(5-oxo-4,5-dihydro-1,2,4-oxadiazol-3-yl)biphenyl-4-yl]methyl}thieno[2,3-d]pyrimidine-2,4(1H,3H)-dione]
- activation at 1 µM [1, 3]: 55%
- IC50 [2]: 1.2 nM

SMILES: CCc1cc2c(=O)n(CC3(O)CCOCC3)c(=O)n(Cc3ccc(-c4ccccc4-c4noc(=O)[nH]4)cc3)c2s1 [Ex. 145, 6-ethyl-3-[(4-hydroxytetrahydro-2H-pyran-4-yl)methyl]-1-{[2′-(5-oxo-4,5-dihydro-1,2,4-oxadiazol-3-yl)biphenyl-4-yl]methyl}thieno[2,3-d]pyrimidine-2,4(1H,3H)-dione]
- activation at 1 µM [1, 3]: 36%
- IC50 [2]: 1.7 nM

SMILES: Cc1ccc(CCn2c(=O)c3cc(CC(F)(F)F)sc3n(Cc3ccc(-c4ccccc4-c4noc(=O)[nH]4)cc3)c2=O)cc1 [Ex. 59, 3-[2-(4-methylphenyl)ethyl]-1-{[2′-(5-oxo-4,5-dihydro-1,2,4-oxadiazol-3-yl)biphenyl-4-yl]methyl}-6-(2,2,2-trifluoroethyl)thieno[2,3-d]pyrimidine-2,4(1H,3H)-dione]
- activation at 1 µM [1, 3]: 58%
- IC50 [2]: 1.2 nM

SMILES: CCc1cc2c(=O)n(CC(=O)c3ccc(OC)cc3)c(=O)n(Cc3c(F)cc(-c4ccccc4-c4noc(=O)[nH]4)cc3F)c2s1 [Ex. 197, 1-{[3,5-difluoro-2′-(5-oxo-4,5-dihydro-1,2,4-oxadiazol-3-yl)biphenyl-4-yl]methyl}-6-ethyl-3-[2-(4-methoxyphenyl)-2-oxoethyl]thieno[2,3-d]pyrimidine-2,4(1H,3H)-dione]
- activation at 1 µM [1, 3]: 67%
- IC50 [2]: 1.4 nM

SMILES: CCc1cc2c(=O)n(CC(=O)c3ccc(OC)cc3)c(=O)n(Cc3ccc(-c4ccccc4-c4noc(O)n4)cc3OC)c2s1 [Ex. 192, 6-ethyl-1-{[3-methoxy-2′-(5-oxo-4,5-dihydro-1,2,4-oxadiazol-3-yl)biphenyl-4-yl]methyl}-3-[2-(4-methoxyphenyl)-2-oxoethyl]thieno[2,3-d]pyrimidine-2,4(1H,3H)-dione potassium salt]
- activation at 1 µM [1]: 49%
- IC50 [2]: 2.3 nM
